Results reported in US20180085452A1, “MATRIX-EMBEDDED TOLERANCE-PROMOTING ADJUVANTS FOR SUBCUTANEOUS IMMUNOTHERAPY” (Tolerogenics S.a.r.l,, priority 2016, published 2018).
In brackets after ≈: the same amount, converted by molar mass. Several values for one entry are separate records, joined by “and”; a condition that tells them apart may be missing. Equal values may be shown once. Entries after “also recorded” stand apart in the source; their conditions may differ. Read-outs that look alike come from different tables or passages of the source.

What was measured:
[1] = cited from earlier work
phagocytes = conditions: approximately a threefold increase; cited from earlier work
[2] = during the first 24 hours; EP14075015.9; cited from earlier work
[3] = in vitro release of DexP from PLGA-PEG-PLGA hydrogel; assay type: physicochemical; conditions: 37° C., PBS
Description: A 20 mM stock solution of DexP in PBS (10.3 mg/ml; MW 516.4; Sigma-Aldrich) is diluted 1:40 in PBS (final concentration: 0.5 mM), and 20 μl of the diluted stock solution is combined with 160 μl of 25% gel solution and 20 μl of 10× PBS (final concentration of DexP: 0.05 mM).
The mixture of is incubated for 2 minutes at 37° C. to induce gelling and overlayed with 200 μl of 1× PBS. At frequent time points the supernatant is removed by pipetting and stored at 4° C. The removed supernatant is replaced by fresh 200 μl of 1× PBS. Controls of the same concentration of DexP in 1× PBS without gel are incubated and sampled in parallel.
Released DexP is determined with a spectrophotometric method (Singh and Verma, 2008). The method involves oxidation of the corticosteroid by iron (III) and subsequent complexation of iron (II) with potassium hexacynoferate (III), forming a bluish green coloured complex with maximum absorbance at 780 nm (Beer's law range: 10-50 μg/ml; molar absorptivity (M^−1cm^−1): for DexP 0.55×10^4).

rheumatoid arthritis [4] = tested on: rheumatoid arthritis; design: patients going into remission: dose or concentration left out as unconfirmed; conditions: on methotrexate therapy, cited from earlier work
[5] = cited from earlier work; remark: listed apart in the source
[6] = rodents; cited from earlier work
[7] = cited from earlier work; remark: listed apart in the source
[8] = cited from earlier work; remark: listed apart in the source
rats = conditions: cited from earlier work
calcium metabolism = conditions: in vivo studies in rats; cited from earlier work
[9] = cited from earlier work; remark: listed apart in the source
mice = conditions: cited from earlier work
[10] = tested on: experimental autoimmune encephalomyelitis (EAE); conditions: i.p. 5 μg/kg body weight every 2 days; cited from earlier work
[11] = tested on: TNFR1-mediated activation of NF-κB; conditions: cited from earlier work
rheumatoid arthritis [12] = conditions: placebo 29.2%, cited from earlier work
[13] = cited from earlier work; remark: listed apart in the source
patients with RA = conditions: placebo 22.0%, cited from earlier work
type 1 diabetes = conditions: cited from earlier work

In the case of `Nc1ncnc2c1ncn2[C@@H]1O[C@H](COP(=O)(O)OP(=O)(O)OP(=O)(O)O)[C@@H](O)[C@H]1O` [ATP], the solubility in ethanol ([1]; 25° C.) is given as “less than 1 mg/ml”, the “concentration effecting maximal migration of phagocytes” value (phagocytes) is given as “about 100 nM” and the “released from the hydrogel” value [2] is given as “approx. 60%”.

In the case of `C[C@@H]1C[C@H]2[C@@H]3CCC4=CC(=O)C=C[C@]4(C)[C@@]3(F)[C@@H](O)C[C@]2(C)[C@@]1(O)C(=O)COP(=O)(O)O` [DexP, dexamethasone sodium phosphate], the “hydrogel-embedded DexP released” value ([3]; after 2 days) is reported as 80-90% and the “hydrogel-embedded DexP released” value ([3]; within the first 6 hours) is reported as 30-50%.

For `O=c1ccn([C@@H]2O[C@H](COP(=O)(O)OP(=O)(O)OP(=O)(O)O)[C@@H](O)[C@H]2O)c(=O)[nH]1` [UTP], the “concentration effecting maximal migration of phagocytes” value (phagocytes) is listed as “about 100 nM” and the “released from the hydrogel” value [2] is listed as “approx. 60%”.

For `C=C1/C(=C\C=C2/CCC[C@]3(C)[C@@H]([C@H](C)CCCC(C)C)CC[C@@H]23)C[C@@H](O)C[C@@H]1O` [alfacalcidiol], the “patients with improvement of disease activity” value (rheumatoid arthritis [4]; 2 pg/day for 3 months) is given as 89% and the “patients going into remission” value (rheumatoid arthritis [4]; for 3 months) is given as 45%.

For `C=C1CC[C@H](O)C/C1=C/C=C1\CCC[C@]2(C)[C@@H]([C@H](C)CCCC(C)(C)O)CC[C@@H]12` [calcidiol, 25-hydroxyvitamin D3], the “plasma concentration that can produce vitamin D toxicity” value ([5]; Jones (2008)) is given as “above 0.75 μM; also recorded: approx. 300 ng/ml”, the “calcidiol level at which toxicity occurs” value ([5]; Shephard and DeLuca (1980)) is given as ≥ 500 ng/ml and approx. 1.25 μM and the “plasma concentrations tolerated with normo-calcemia” value [6] is given as 250 to 1000 nM.

In the case of `C=C1/C(=C\C=C2/CCC[C@]3(C)[C@@H]([C@H](C)/C=C/[C@@H](O)C4CC4)CC[C@@H]23)C[C@@H](O)C[C@@H]1O` [calcipotriol], the “applied dose absorbed systemically” value ([7]; ointment applied to normal skin) is listed as ~5%, the “applied dose absorbed systemically” value ([7]; ointment applied topically to psoriasis plaques) is listed as “approximately 6%” and the “rate of clearance, times higher than for calcitriol” value ([8]; rat, in vivo) is listed as “approximately 140 times”. For the same molecule, the “half-life in circulation (serum half-life)” value ([8]; rats) was 4 min, the “single s.c. dose up to which no death occurred” value (rats) was ≤ 540 μg/kg body weight and the “effect on calcium metabolism, times less than calcitriol” value (calcium metabolism) was 100-200 times.

In the case of `C=C1/C(=C\C=C2/CCC[C@]3(C)[C@@H]([C@H](C)CCCC(C)(C)O)CC[C@@H]23)C[C@@H](O)C[C@@H]1O` [calcitriol, 1α,25-dihydroxyvitamin D3], the “single oral dose relatively well tolerated (only grade 1 to 2 adverse events)” value [9] is given as “up to 165 μg”, the “solubility in a 1:5 solution of ethanol:PBS” value ([1]; 1:5 ethanol:PBS, pH 7.2) is given as “approx. 0.15 mg/ml” and the “dose that can be administered as a single bolus i.p. injection” value (mice; in 0.2 ml of normal saline) is given as “up to 500 ng/mouse”. For the same molecule, the “dose above which mice can become hypercalcemic on day 2 or day 3” value (mice; single bolus i.p.) was “higher than 750 ng/mouse” and the “treated mice in which appearance of paralysis was prevented” value [10] was 70%.

In the case of `C[C@@H]1CCN(C(=O)CC#N)C[C@@H]1N(C)c1ncnc2[nH]ccc12` [free base of tofacitinib, tofacitinib], the “solubility in DMSO” value ([1]; DMSO) is listed as 100 mg/mL (≈ 320 mM), the solubility in ethanol [1] is listed as 100 mg/mL (≈ 320 mM) and the “maximum solubility in plain water” value ([1]; plain water, estimated) is listed as 10-20 μM and 3.12-6.24 μg/ml.

For `O=C([O-])c1ccccc1O.[Na+]` [sodium salicylate], the “dose required for inhibition of TNFR1-mediated activation of NF-κB” value [11] is listed as 10 to 20 mM.

In the case of `C[C@@H]1CCN(C(=O)CC#N)C[C@@H]1N(C)c1ncnc2[nH]ccc12` [tofacitinib], the “ACR20 response rate by week 6” value (rheumatoid arthritis [12]; 5 mg twice daily) is given as 70.5%, the “ACR20 response rate by week 6” value (rheumatoid arthritis [12]; 15 mg twice daily) is given as 81.2% and the “ACR20 response rate by week 6” value (rheumatoid arthritis [12]; 30 mg twice daily) is given as 76.8%. For the same molecule, the in vivo half-life [13] was 2 to 3 h, the “ACR20 response at week 12” value (patients with RA; 3 mg orally twice a day) was 39.2% and the “ACR20 response at week 12” value (patients with RA; 5 mg orally twice a day) was 59.2%. For the same molecule, the “ACR20 response at week 12” value (patients with RA; 10 mg orally twice a day) was 70.5% and the “ACR20 response at week 12” value (patients with RA; 15 mg orally twice a day) was 71.9%.

For vitamin D, the “relative risk of type 1 diabetes over the subsequent 30 years” value (type 1 diabetes; doses of exactly 50 μg/day) is listed as 0.22 and the “relative risk of type 1 diabetes over the subsequent 30 years” value (type 1 diabetes; doses of over 50 μg/day (2000 IU/d) during infancy) is listed as 0.14.
